{"source": "patent US20060035897A1", "about": "“Trifluoromethyl substituted benzamides as kinase inhibitors” (priority 2004, published 2006)"}
{"units": {"melting point": "°C"}}
{"smiles": "Cc1ccc(NC(=O)c2cccc(C(F)(F)F)c2)cc1-c1ccc2ccncc2c1", "note": "[Example 1, N-(3-Isoquinolin-7-yl-4-methyl-phenyl)-3-trifluoromethyl-benzamide]", "melting point": "148 to 152"}
{"smiles": "Cc1ccc(C(=O)Nc2cccc(C(F)(F)F)c2)cc1-c1ccc2ccncc2c1", "note": "[Example 3, 3-Isoquinolin-7-yl-4-methyl-N-(3-trifluoromethyl-phenyl)-benzamide]", "melting point": "157 to 159"}
{"smiles": "Cc1ccc(NC(=O)c2cccc(C(F)(F)F)c2)cc1-c1ccc2ncsc2c1", "note": "[Example 5, N-(3-Benzothiazol-6-yl-4-methyl-phenyl)-3-trifluoromethyl-benzamide]", "melting point": "94 to 96"}
{"smiles": "Cc1ccc(C(=O)Nc2cccc(C(F)(F)F)c2)cc1-c1ccc2ncsc2c1", "note": "[Example 6, 3-Benzothiazol-6-yl-4-methyl-N-(3-trifluoromethyl-phenyl)-benzamide]", "melting point": "102 to 104"}
{"smiles": "Cc1ccc(NC(=O)c2cccc(C(F)(F)F)c2)cc1-c1ccc2cnncc2c1", "note": "[Example 7, N-(4-Methyl-3-phthalazin-6-yl-phenyl)-3-trifluoromethyl-benzamide]", "melting point": "205 to 206"}
{"smiles": "Cc1ccc(C(=O)Nc2cccc(C(F)(F)F)c2)cc1-c1ccc2cnncc2c1", "note": "[Example 8, 4-Methyl-3-phthalazin-6-yl-N-(3-trifluoromethyl-phenyl)-benzamide]", "melting point": "270 to 272"}
{"smiles": "Cc1ccc(NC(=O)c2cccc(C(F)(F)F)c2)cc1-c1ccc2scnc2c1", "note": "[Example 9, N-(3-Benzothiazol-5-yl-4-methyl-phenyl)-3-trifluoromethyl-benzamide]", "melting point": "90 to 93"}
{"smiles": "Cc1ccc(C(=O)Nc2cccc(C(F)(F)F)c2)cc1-c1ccc2scnc2c1", "note": "[Example 10, 3-Benzothiazol-5-yl-4-methyl-N-(3-trifluoromethylphenyl)benzamide]", "melting point": "200 to 202"}
{"smiles": "Cc1ccc(NC(=O)c2ccc(CN3CCN(C)CC3)c(C(F)(F)F)c2)cc1-c1ccc2cnncc2c1", "note": "[Example 15, N-(4-Methyl-3-phthalazin-6-yl-phenyl)-4-(4-methyl-piperazin-1-ylmethyl)-3-trifluoromethyl-benzamide]", "melting point": "204 to 208"}
{"smiles": "Cc1ccc(NC(=O)c2ccc(CN3CCCCC3)c(C(F)(F)F)c2)cc1-c1ccc2cnncc2c1", "note": "[Example 17, N-(4-Methyl-3-phthalazin-6-yl-phenyl)-4-piperidin-1-ylmethyl-3-trifluoromethyl-benzamide]", "melting point": "175 to 177"}
{"smiles": "Cc1ccc(NC(=O)c2ccc(CN(C)C)c(C(F)(F)F)c2)cc1-c1ccc2cnncc2c1", "note": "[Example 19, 4-Dimethylaminomethyl-N-(4-methyl-3-phthalazin-6-yl-phenyl)-3-trifluoromethyl-benzamide]", "melting point": "240 to 241"}
{"smiles": "Cc1ccc(NC(=O)c2ccc(CN3CCOCC3)c(C(F)(F)F)c2)cc1-c1ccc2cnncc2c1", "note": "[Example 20, N-(4-Methyl-3-phthalazin-6-yl-phenyl)-4-morpholin-4-ylmethyl-3-trifluoromethyl-benzamide]", "melting point": "236 to 238"}
{"smiles": "Cc1ccc(C(=O)Nc2ccc(CN3CCCCC3)c(C(F)(F)F)c2)cc1-c1ccc2cnncc2c1", "note": "[Example 22, 4-Methyl-3-phthalazin-6-yl-N-(4-piperidin-1-ylmethyl-3-trifluoromethyl-phenyl)-benzamide]", "melting point": "247 to 249"}
{"smiles": "Cc1ccc(C(=O)Nc2ccc(CN3CCOCC3)c(C(F)(F)F)c2)cc1-c1ccc2cnncc2c1", "note": "[Example 23, 4-Methyl-N-(4-morpholin-4-ylmethyl-3-trifluoromethyl-phenyl)-3-phthalazin-6-yl-benzamide]", "melting point": "284 to 287"}
{"smiles": "Cc1ccc(C(=O)Nc2ccc(CN(C)C)c(C(F)(F)F)c2)cc1-c1ccc2cnncc2c1", "note": "[Example 24, N-(4-Dimethylaminomethyl-3-trifluoromethyl-Phenyl)-4-methyl-3-phthalazin-6-yl-benzamide]", "melting point": "251 to 254"}
{"smiles": "Cc1ccc(C(=O)Nc2ccc(CN3CCCC3)c(C(F)(F)F)c2)cc1-c1ccc2cnncc2c1", "note": "[Example 25, 4-Methyl-3-phthalazin-6-yl-N-(4-pyrrolidin-1-ylmethyl-3-trifluoromethyl-phenyl)-benzamide]", "melting point": "246 to 250"}
